≈ marks a conversion by molar mass, not a printed value. Read-outs that look alike come from different tables or passages of the source. Blank lines part the entries; values can stand above or below the compound they belong to.
What was measured:
[1] = Metabolic stability in human liver microsomes; format: in vitro ADME; details: both sexes, human; for remaining at 40 min, 2 µM / remaining at 7 min, 2 µM / remaining at […], 2 µM / remaining at 25 min, 2 µM: pH 7.4, Table S7, 2nd batch; for microsomal CLint at 2 μM: read-out: CLint: experimental metabolic stability in human liver microsomes; for remaining at […], 2 µM: 15 min
Experimental: 9. Metabolic Stability in Human Liver Microsomes
The objective of this study was to determine the metabolic stability of 3 test articles (EN300- […]
in human liver microsomes at five-time points over 40 minutes using HPLC-MS. Metabolic stability is defined as the percentage of parent compound lost over time in the presence of a metabolically active test system.
Potassium phosphate monobasic (Bio-Basic, Canada; Lot #N9016010)
Potassium phosphate dibasic (Bio-Basic, Canada; Lot #MA7100050) […]
Glucose-6-phosphate dehydrogenase from baker's yeast, type XV (Sigma-Aldrich, USA; Cat […]
D-Glucose-6-phosphate sodium salt (Sigma-Aldrich, USA; Cat #G7879-1G)
NADPH tetrasodium salt (BLD Pharmatech Ltd., Cat #BD116582)
Verapamil hydrochloride (Sigma Aldrich, USA; Cat #V4629)
Niclosamide (Sigma-Aldrich, USA; Cat #N3510)
DMSO stock solutions of the tested compounds 20 mM
Gradient HPLC system (Shimadzu)
Triple quadrupole mass-detector API 3000 with TurboIonSpray Ion Source (AB Sciex, Canada) […]
Multichannel pipettors 1-30 µL, 2-125 µL, 30-850 µL (Thermo Scientific) […]
All measurements were performed using the Shimadzu HPLC system including vacuum degasser, gradient pumps, reverse phase HPLC column, column oven, and autosampler. Mass spectrometric analysis was performed using an API 3000 mass spectrometer from Applied Biosystems/MDS Sciex (AB Sciex) with Turbo V ion source and TurboIonspray interface. The […]
and system control were performed using Analyst 1.6.3 software from AB Sciex.
Microsomal incubations were carried out in 96-well plates in 5 aliquots of 30 μL each (one for each time point). Liver microsomal incubation medium comprised of phosphate buffer (100 mM, pH 7.4), MgCl2 (3.3 mM), NADPН (3 mM), glucose-6-phosphate (5.3 mM), glucose-6-phosphate dehydrogenase (0.67 units/mL) with 0.42 mg of liver microsomal protein per mL. In the control reactions, the NADPH-cofactor system was substituted with phosphate buffer. Test compounds […]
100 rpm. Five-time points over 40 minutes were analyzed. The reactions were stopped by adding 5 volumes of acetonitrile with internal standard to incubation aliquots, followed by protein sedimentation by centrifuging at 5500 rpm for 5 min. Each reaction was performed in duplicates.
Supernatants were analyzed using the HPLC system coupled with a tandem mass spectrometer.
The elimination constant (kel), half-life (t1/2), and intrinsic clearance (Clint) were determined in a plot of […] versus time, using linear regression analysis:1
1 In order to indicate the quality of the linear regression analysis, the R2 (determination coefficient) values are provided.
In some cases, the last time point is excluded from the calculations to ensure acceptable logarithmic linearity of decay.

[2] = Table S5, 2nd batch
[3] = Kinetic solubility in phosphate-buffered saline, pH 7.4; format: physicochemical; details: 25 °C, pH 7.4, aqueous buffer, kinetic from dmso stock; for solubility at 2 h: PBS solubility
Experimental: page 239: 7. […] The data […] analysis software. […] page 240: Methods Kinetic solubility assay was performed according to Enamine's aqueous solubility SOP. Briefly, […] theoretical concentration of 400 μM in duplicates in phosphate-buffered saline pH 7.4 […] The experimental compound dilutions in PBS were further allowed to equilibrate at 25 °C on a thermostatic shaker for two hours and then filtered through HTS filter plates using a vacuum manifold. The filtrates of test […] prepared to theoretical concentrations of 0 μM (blank), 10 μM, 25 μM, 50 μM, 100 μM, and 200 […] Ondansetron was used as a reference compound to control proper assay performance. 200 μL of each sample was transferred to a 96-well plate and measured in the 230-550 nm range with a 5 nm step. The concentrations of compounds in PBS filtrate are calculated using a dedicated Microsoft Excel calculation script. Proper absorbance wavelengths for calculations are selected for each compound manually based on absorbance maximums (absolute absorbance unit values for the minimum and maximum concentration points within the 0 - 3 OD range). Each final dataset is visually evaluated by the operator, and goodness of fit (R2) is calculated for each calibration curve. […] close to the upper limit of the range may have higher actual solubility (e.g. 5'-deoxy-5- fluorouridine). The calibration curves are shown in Appendix*. […] Compound ID PBS solubility, pH 7.4, μM SE […] Ondansetron 128 126 127** 1.1 EN300-7362818 6 6 6 0.2 (Sonidegib) BCHep-Sonidegib (50) 5 3 4 0.9 Table S3. 2nd batch PBS solubility, pH 7.4, μM Compound ID SE […] Ondansetron 124 124 124** 0.1 EN300-45381956 (51) 34 34 34 0.2 *Goodness of fit (R2) in all titration curves as well as the variations between repeat measurements indicates a high quality of the experimental data in the current batch of test articles. **Ondansetron solubility data are consistent with those previously obtained. […]

in vitro = details: human; for efflux ratio at 90 min, 10 µM: Caco-2, pH 7.4; for Papp A→B at 90 min, 10 µM: Caco-2, pH 7.4, Papp (AB); for Papp B→A at 90 min, 10 µM: Caco-2, pH 7.4, Papp (BA)
[4] = test system: Hedgehog signaling pathway; details: Mus musculus
[5] = human liver microsomes, pH 7.4, human liver microsomes, read-out: t1/2: experimental half-time of a metabolic decomposition
[6] = liver microsomes, 2 µM, read-out: % Remaining, Mean of 2
[7] = NIH3T3, read-out: pIC50, Hedgehog signaling pathway, experiment with EN300-45381956 (51) (converted), calculated from IC50
[8] = pH 7.4, LogD, pH 7.4 (overall of 3 incubations)
[9] = pH 7.4, logD (7.4): experimental distribution coefficient in n-octanol/phosphate-buffered saline, pH 7.4
[10] = Mean, 10 µM, 90 min, no verapamil
[11] = replicate 1, 10 µM, 90 min, no verapamil
[12] = replicate 2, 10 µM, 90 min, no verapamil

remaining at 40 min, 2 µM ([1]; human liver microsomes, no NADPH, read-out: % Remaining without cofactor, Mean of 2): 104% | half-life at 2 μM [1, 5]: 1.02 h | k el at 2 µM ([1]; human liver microsomes, pH 7.4, Table S7, 2nd batch): 0.000183 s⁻¹ | half-life at 2 μM ([1]; human liver microsomes, pH 7.4, Table S7, 2nd batch, read-out: t1/2): 1.01 h | microsomal CLint at 2 μM ([1]; human liver microsomes, pH 7.4): 28 µL/min/mg | remaining at 7 min, 2 µM ([1]; liver microsomes, 2 µM): 96% | remaining at […], 2 µM ([1]; liver microsomes, 2 µM): 89% | remaining at 25 min, 2 µM ([1]; liver microsomes, 2 µM): 77% | remaining at 40 min, 2 µM [1, 6]: 64% | D ([2]; incubation 1): 7.16E+04 | D ([2]; incubation 2): 6.24E+04 | D ([2]; incubation 3): 6.33E+04 | solubility kinetic at 2 h [3]: 34 µM (≈ 16.7 µg/mL) | solubility at 2 h ([3]; pH 7.4, Incubation 1): 34 µM (≈ 16.7 µg/mL) | solubility at 2 h ([3]; pH 7.4, Incubation 2): 34 µM (≈ 16.7 µg/mL) | solubility at 2 h ([3]; pH 7.4, Mean): 34 µM (≈ 16.7 µg/mL) | efflux ratio at 90 min, 10 µM (in vitro): 1.5 | Papp A→B at 90 min, 10 µM (in vitro; Mean): 5.4 ×10⁻⁶ cm/s | Papp A→B at 90 min, 10 µM (in vitro; replicate 1): 6.3 ×10⁻⁶ cm/s | Papp A→B at 90 min, 10 µM (in vitro; replicate 2): 4.5 ×10⁻⁶ cm/s | Papp B→A at 90 min, 10 µM (in vitro; Mean): 8 ×10⁻⁶ cm/s | Papp B→A at 90 min, 10 µM (in vitro; replicate 1): 7.3 ×10⁻⁶ cm/s | Papp B→A at 90 min, 10 µM (in vitro; replicate 2): 8.7 ×10⁻⁶ cm/s | recovery at 90 min, 10 µM (in vitro; Caco-2, pH 7.4, Recovery A-B in presence of Verapamil, Mean): 51% | recovery at 90 min, 10 µM (in vitro; Caco-2, pH 7.4, Recovery A-B in presence of Verapamil, replicate 1): 53% | recovery at 90 min, 10 µM (in vitro; Caco-2, pH 7.4, Recovery A-B in presence of Verapamil, replicate 2): 49% | recovery at 90 min, 10 µM (in vitro; Caco-2, pH 7.4, Recovery A-B, Mean): 43% | recovery at 90 min, 10 µM (in vitro; Caco-2, pH 7.4, Recovery A-B, replicate 1): 44% | recovery at 90 min, 10 µM (in vitro; Caco-2, pH 7.4, Recovery A-B, replicate 2): 43% | recovery at 90 min, 10 µM (in vitro; Caco-2, pH 7.4, Recovery B-A in presence of Verapamil, Mean): 77% | recovery at 90 min, 10 µM (in vitro; Caco-2, pH 7.4, Recovery B-A in presence of Verapamil, replicate 1): 69% | recovery at 90 min, 10 µM (in vitro; Caco-2, pH 7.4, Recovery B-A in presence of Verapamil, replicate 2): 86% | recovery at 90 min, 10 µM (in vitro; Caco-2, pH 7.4, Recovery B-A, Mean): 70% | recovery at 90 min, 10 µM (in vitro; Caco-2, pH 7.4, Recovery B-A, replicate 1): 71% | recovery at 90 min, 10 µM (in vitro; Caco-2, pH 7.4, Recovery B-A, replicate 2): 69% | IC50 ([4]; NIH3T3, read-out: IC50 (HH signal): inhibition of the Hedgehog signaling pathway, Gli reporter NIH3T3 cell line): 96 nM | IC50 [4, 7]: 100 nM | logD at 1 h (physchem; pH 7.4, LogD, pH 7.4): ≥ 4.5 | logD at 1 h (physchem; [8]): ≥ 4.5 | logD at 1 h (physchem; [9]): ≥ 4
SMILES: CC1CN(c2ccc(NC(=O)C34COCC(c5ccc(OC(F)(F)F)cc5)(C3)C4)cn2)CC(C)O1 (stereo not drawn) [Compound 51]

half-life at 2 μM [1, 5]: 1.73 h | microsomal CLint at 2 μM ([1]; human liver microsomes, pH 7.4): 16 µL/min/mg | remaining at 7 min, 2 µM ([1]; liver microsomes, 2 µM): 100% | remaining at […], 2 µM ([1]; liver microsomes, 2 µM): 94% | remaining at 25 min, 2 µM ([1]; liver microsomes, 2 µM): 89% | remaining at 40 min, 2 µM [1, 6]: 77% | remaining at 40 min, 2 µM ([1]; liver microsomes, no NADPH, read-out: % Remaining without cofactor, Mean of 2): 103% | k el at 2 µM ([1]; liver microsomes, pH 7.4, Table S7, 2nd batch): 0.000117 s⁻¹ | half-life at 2 μM ([1]; liver microsomes, pH 7.4, Table S7, 2nd batch, read-out: t1/2): 1.73 h | D ([2]; incubation 1): 5.61E+04 | D ([2]; incubation 2): 5.60E+04 | D ([2]; incubation 3): 6.79E+04 | solubility kinetic at 2 h [3]: 6 µM (≈ 2.91 µg/mL) | solubility at 2 h ([3]; pH 7.4, Incubation 1): 6 µM (≈ 2.91 µg/mL) | solubility at 2 h ([3]; pH 7.4, Incubation 2): 6 µM (≈ 2.91 µg/mL) | solubility at 2 h ([3]; pH 7.4, Mean): 6 µM (≈ 2.91 µg/mL) | efflux ratio at 90 min, 10 µM (in vitro): 0.3 | Papp A→B at 90 min, 10 µM (in vitro; [10]): 2.8 ×10⁻⁶ cm/s | Papp A→B at 90 min, 10 µM (in vitro; [11]): 2.9 ×10⁻⁶ cm/s | Papp A→B at 90 min, 10 µM (in vitro; [12]): 2.7 ×10⁻⁶ cm/s | Papp B→A at 90 min, 10 µM (in vitro; [10]): 0.9 ×10⁻⁶ cm/s | Papp B→A at 90 min, 10 µM (in vitro; [11]): 1 ×10⁻⁶ cm/s | Papp B→A at 90 min, 10 µM (in vitro; [12]): 0.9 ×10⁻⁶ cm/s | recovery at 90 min, 10 µM (in vitro; Caco-2, pH 7.4, Recovery A-B in presence of Verapamil, Mean, with verapamil): 65% | recovery at 90 min, 10 µM (in vitro; Caco-2, pH 7.4, Recovery A-B in presence of Verapamil, replicate 1, with verapamil): 67% | recovery at 90 min, 10 µM (in vitro; Caco-2, pH 7.4, Recovery A-B in presence of Verapamil, replicate 2, with verapamil): 63% | recovery at 90 min, 10 µM (in vitro; Caco-2, pH 7.4, Recovery A-B, Mean, no verapamil): 36% | recovery at 90 min, 10 µM (in vitro; Caco-2, pH 7.4, Recovery A-B, replicate 1, no verapamil): 35% | recovery at 90 min, 10 µM (in vitro; Caco-2, pH 7.4, Recovery A-B, replicate 2, no verapamil): 37% | recovery at 90 min, 10 µM (in vitro; Caco-2, pH 7.4, Recovery B-A in presence of Verapamil, Mean, with verapamil): 61% | recovery at 90 min, 10 µM (in vitro; Caco-2, pH 7.4, Recovery B-A in presence of Verapamil, replicate 1, with verapamil): 63% | recovery at 90 min, 10 µM (in vitro; Caco-2, pH 7.4, Recovery B-A in presence of Verapamil, replicate 2, with verapamil): 60% | recovery at 90 min, 10 µM (in vitro; Caco-2, pH 7.4, Recovery B-A, Mean, no verapamil): 45% | recovery at 90 min, 10 µM (in vitro; Caco-2, pH 7.4, Recovery B-A, replicate 1, no verapamil): 46% | recovery at 90 min, 10 µM (in vitro; Caco-2, pH 7.4, Recovery B-A, replicate 2, no verapamil): 43% | IC50 ([4]; NIH3T3, read-out: IC50, Hedgehog signaling pathway, mean ± SD from 2 independent experiments, experiment with BCH-Sonidegib (50)): 6.4 ± 0.5 nM | IC50 ([4]; NIH3T3, read-out: IC50, Hedgehog signaling pathway, reference compound in the experiment with EN300-45381956 (51)): 1.46 nM | IC50 [4, 7]: 1.58 nM | logD at 1 h (physchem; pH 7.4, LogD, pH 7.4): ≥ 4.5 | logD at 1 h (physchem; [8]): ≥ 4.5 | logD at 1 h (physchem; [9]): ≥ 4
SMILES: Cc1c(C(=O)Nc2ccc(N3C[C@@H](C)O[C@@H](C)C3)nc2)cccc1-c1ccc(OC(F)(F)F)cc1 [Sonidegib]
